From patent US20040097594A1 (priority 1998, published 2004)
Read-outs that look alike come from different tables or passages of the source.

Legend:
HIV-1 protease = HIV-1 protease (Human immunodeficiency virus type 1 group M subtype B, UniProt P04585); experiment: biochemical
HIV-1 (strain IIIB) = experiment: microbe, parasite or virus in culture; assay type: cell-based; details: lower line of each compound's entry, read-out: IC50 (MT-4 cells)
[1] = HIV-1 protease, upper line of each compound's entry, read-out: Ki (enzyme)
[2] = Human immunodeficiency virus 1, 120 h, MT4 cells infected with HIV-1 strain IIIB, 5 days

Compound | Ki (HIV-1 protease; [1]) [nM] | IC50 (HIV-1 (strain IIIB); [2]) [nM] | Ki (HIV-1 protease) [nM] | IC50 (HIV-1 (strain IIIB); Human immunodeficiency virus 1, IIIB, MT4, 120 h, […]) [nM]
CC(C)ON(C[C@@H](O)[C@H](Cc1ccccc1)NC(=O)OC(C)(C)C)S(=O)(=O)c1ccc(N)c(N)c1 [Compound 2] | 10 to 100 | > 1000 | – | –
CCOC(=O)CNC(=O)NCCNc1cccc(S(=O)(=O)N(CC(O)C(Cc2ccccc2)NC(=O)OC2COC3OCCC23)OC2CCCC2)c1 (mixture of isomers) [Compound 113, Ethyl 2-[([2-(3-[[(2R,3S)-3-([(3R,3aS,6aR)hexahydrofuro[2,3-b]furan-3-yloxy]carbonylamino)-2-hydroxy-4-phenylbutyl](cyclopentyloxy)amino]sulfonylanilino)ethyl]aminocarbonyl)amino]acetate and ethyl 2-[([2-(3-[[(2R,3S)-3-([(3S,3aR,6aS)hexahydrofuro[2,3-b]furan-3-yloxy]carbonylamino)-2-hydroxy-4 phenylbutyl](cyclopentyloxy)amino]sulfonylanilino)ethyl]aminocarbonyl)amino]acetate] | < 1 | ≤ 100 | – | –
CC(C)(C)OC(=O)N[C@@H](Cc1ccccc1)[C@H](O)CN(OC1CCCC1)S(=O)(=O)c1cccc(N)c1 [Compound 11, tert-butyl N-(1S,2R)-3-[[(3-aminophenyl)sulfonyl](cyclopentyloxy)amino]-1-benzyl-2-hydroxypropylcarbamate] | 1 to 10 | > 1000 | – | –
Nc1nc2ccc(S(=O)(=O)N(C[C@@H](O)[C@H](Cc3ccccc3)NC(=O)OC3COCOC3)OC3CCCC3)cc2s1 [Compound 125] | < 1 | ≤ 100 | – | –
CC(C)ON(CC(O)C(Cc1ccccc1)NC(=O)OC1COC2OCCC12)S(=O)(=O)c1ccc2nc(NS(C)(=O)=O)n(Cc3ccccc3)c2c1 (centres unmarked) [Compound 118] | > 100 | 500 to 1000 | – | –
COC(=O)Nc1n[nH]c2ccc(S(=O)(=O)N(C[C@@H](O)[C@H](Cc3ccccc3)NC(=O)OC3COCOC3)OC3CCCC3)cc12 [Compound 104, 1,3-Dioxan-5-yl-N-(1S,2R)-1-benzyl-3-[(cyclopentyloxy)(3-(carbomethoxyamino)-indazole-5-ylsulfonyl)amino]-2-hydroxypropylcarbamate] | < 1 | ≤ 100 | – | –
CC(C)(C)OC(=O)N[C@@H](Cc1ccccc1)[C@H](O)CN(OC1CCCC1)S(=O)(=O)c1ccc2[nH]c(NC(=O)CCCl)nc2c1 [Compound 105, Tert-butyl N-(1S,2R)-1-benzyl-3-[(cyclopentyloxy)(2-[(3-chloropropionyl)amino]-1H-benzimidazol-5-ylsulfonyl)amino]-2-hydroxypropylcarbamate] | < 1 | ≤ 100 | – | –
O=C(N[C@@H](Cc1ccccc1)[C@H](O)CN(OC1CCCC1)S(=O)(=O)c1ccc2c(c1)OCO2)OC1CO[C@H]2OCC[C@@H]12 (stereo partly drawn) [Compound 138, (3R,3aS,6aR)hexahydrofuro[2,3-b]furan-3-yl N-(1S,2R)-3-[(1,3-benzodioxol-5-ylsulfonyl)(cyclopentyloxy)amino)-1-benzyl-2-hydroxypropylcarbamate] | – | ≤ 100 | < 1 | –
Nc1cccc(S(=O)(=O)N(C[C@@H](O)[C@H](Cc2ccccc2)NC(=O)O[C@H]2CO[C@H]3OCC[C@H]32)OC2CCOCC2)c1 [Compound 147, (3R,3aS,6aR)hexahydrofuro[2,3-b]furan-3-yl 3-[[(3-aminophenyl)sulfonyl](tetrahydro-2H-pyran-4-yloxy)amino]-1-benzyl-2-hydroxypropylcarbamate] | < 1 | – | – | ≤ 100
COc1ccc(S(=O)(=O)N(C[C@@H](O)[C@H](Cc2ccccc2)NC(=O)OC(C)(C)C)OCC2CCCCO2)cc1 (stereo partly drawn) [Compound 19, tert-butyl N-(1S,2R)-1-benzyl-2-hydroxy-3-[[(4-methoxyphenyl)sulfonyl](tetrahydro-2H-pyran-2-ylmethoxy)amino]propylcarbamate] | 10 to 100 | > 1000 | – | –
